Reference: patent US20260207600A1, “METHODS OF TREATMENT WITH MYOSIN MODULATOR” (MYOKARDIA, INC., priority 2019, published 2026)
Read-outs that look alike come from different tables or passages of the source.

Key:
[1] = Solubility estimates at ambient temperature; type: physicochemical; conditions: for solubility: organic solvent or mixture, thermodynamic from solid, read-out: solubility estimate
Protocol: Solubilities were calculated based on the total solvent used to give a solution; actual solubilities may be greater because of the volume of solvent portions utilized or a slow rate of dissolution. […] If dissolution occurred at the first aliquot, the value was reported as “>”.
Solubility estimates at ambient temperature were performed in 25 solvents and solvent systems using Form A (Lot 2-4) (Table 13.3).

[2] = test system: Yucatan mini-pigs with a heterozygous MYH7 R403Q mutation; experiment: Chronic MYK-581 in mini-pig genetic model of non-obstructed HCM (cMR imaging, invasive hemodynamics, dobutamine challenge); type: in vivo
Protocol: The mini-pigs were treated for at least 12 weeks and were evaluated as shown in Schematic 1 below. […] After ~14 weeks of treatment, all pigs underwent in vivo cMR imaging for the assessment of LV function and geometry, as well as of myocardial composition via of Late Gadolinium Enhancement (LGE) and T1 mapping techniques including extracellular volume (ECV) assessments. In addition, a subset of animals (MYK: n=6, CTRL: n=5) also underwent terminal invasive hemodynamics assessments, including cardiac output (CO, via thermodilution), load-independent systolic/diastolic function (via LV pressure-volume relationships), and β-adrenergic (β-AR) cardiac reserve (via dobutamine at 5 μg/kg/min IV).
The mini-pig model can be obtained following the method disclosed in a presentation entitled “A Minipig Genetic Model of Hypertrophic Cardiomyopathy Uncovers the Pathophysiological Mechanisms of Disease Evolution”, by E. Green et al., at University of Iowa, Carver College of Medicine.

[3] = test system: conscious Sprague-Dawley rats; experiment: Positive inotropic challenge (dobutamine, levosimendan) after supra-therapeutic mavacamten, echocardiography; type: in vivo, rat; conditions: healthy rats exposed to a supra-therapeutic dose of mavacamten
Protocol: Methods: The responsiveness of mavacamten-induced cardio-depression to positive inotropic challenges was assessed in a set of conscious Sprague-Dawley rats. In these animals, functional reserve was assessed via either dobutamine (+DOB, 10 μg/kg/min IV for 10 min, n=7) or levosimendan (+LEVO, 0.3 μmol/kg IV over […]; n=6) challenges given 3 hrs following a single-dose administration of MAVA (at 4 mg/kg, PO). Cardiac function/geometry were recorded and compared at three separate time-points/days: prior to dosing (i.e., at baseline) and at 3 hrs post-dosing both before as well as during the inotropic challenge; in order to account for the levosimendan-induced changes in loading conditions, an additional echocardiographic examination was performed following acute preload-restoration in LEVO-treated rats (+LEVO/F, 0.9% NaCl at 30 mL/kg/hr IV).
In these experiments, left-ventricular fractional shortening (FS), an index of systolic performance, as well as LV dimensions/volumes and heart rates were measured using a high-frequency transducer and parasternal long-axis transthoracic views (Vevo2100, VisualSonic). FS was defined as the end-diastole normalized change in internal dimensions/diameter of the left ventricle between end-systole (LVESd) and end-diastole (LVEDd) (i.e., FS=100·[LVEDd−LVESd]/LVEDd). LV volumes were derived assuming a Teichholz model (LVV=7·[2.4+LVid]−1·LVid3).

CC(C)n1c(=O)cc(N[C@@H](C)c2ccccc2)[nH]c1=O [Form A, (S)-3-isopropyl-6-((1-phenylethyl)amino)-pyrimidine-2,4 (1H,3H)-dione]
solubility estimate ([1]; methanol, THF, THF/water (90/10, vol/vol) and DMSO/water (90/10, vol/vol)): limited solubility | solubility ([1]; HFIPA and various mixtures with DMSO, NMP and DMF): ≥ 20 mg/mL | solubility ([1]; anisole, isopropanol, MIBK, nitromethane, and toluene): ≤ 1 mg/mL

CC(C)n1c(=O)cc(N[C@@H](C)c2cccc(F)c2)[nH]c1=O [MYK-581, (S)-6-((1-(3-fluorophenyl)ethyl)amino)-3-isopropylpyrimidine-2,4 (1H,3H)-dione]
LV stiffness ([2]; control 3.5±0.3): 1.3±0.2 mmHg/mL | LV end-diastolic pressures ([2]; control 23±4): 9±1 mmHg | left-atrial volumes ([2]; control 29±4): 16 ± 1 mL | ECV ([2]; control 32±2): 27±1% | LV mass ([2]; control 66±5): 51 ± 4 g | time-constants of relaxation ([2]; control 71±5): 45 ± 3 ms | CO increase under β-AR challenge ([2]; dobutamine challenge, control +26±2): +60±8% | β-AR stroke-volume recruitment ([2]; dobutamine challenge, control −14±6): +15±4% | mortality ([2]; end of the study (~5 months), CTRL 40%): 0% | EF ([2]; ~14 weeks of treatment, cMR, control 65±2): 59±2%

CC(CCc1ccc(O)cc1)NCCc1ccc(O)c(O)c1 (stereo not drawn) [dobutamine]
echocardiography-derived indices of systolic function after supra-therapeutic mavacamten [3]: successfully rescued/restored

C[C@@H]1CC(=O)NN=C1c1ccc(NN=C(C#N)C#N)cc1 [levosimendan]
echocardiography-derived indices of systolic function after supra-therapeutic mavacamten [3]: successfully rescued/restored
